These results are taken from patent US4537967A, “1-Oxo-1,2,3,4-tetrahydro-3-isoquinoline carboxylic acid derivatives” (Wakamoto Pharmaceutical Co., Ltd., priority 1982, dated 1985).

Each structure is given as a SMILES string.

For assay [1], the system named is angiotensin converting enzyme (ACE). As to the kind of experiment: Inhibition of the angiotensin-induced rise in blood pressure in rats after oral administration (illustrative test, ACE inhibitory effect). The format is in vivo, male rats (Spraque-Dawleg). The note with it: angiotensin I 300 ng/kg and angiotensin II 100 ng/kg i.v., maximum blood pressure rise vs control. On the procedure:
(§1) The compounds [I] according to the present invention may be expected to be useful as a […], since they have an excellent ACE inhibitory effect. This has been well evidenced by an experiment using ACE extracted from rabbit lung and purified. The ACE inhibitory effect of the compounds of the present invention was determined according to the following illustrative test and the results will be shown in the following Table 1.
In this test, male rats (Spraque-Dawleg) of 250 to 350 g in weight were used, which were raised under conditions of free access to food and water.
The day before the test, each rat was narcotized by sodium pentobarbital (50 mg/kg) injected intraperitoneally. A polyethylene tube was inserted into a vein at the groin and fixed in order to introduce angiotensin and, further, another polyethylene tube was inserted into an artery at the groin and fixed to measure the blood pressure thereof. The blood pressure was determined by the use of an electronic sphygmomanometer (Nihon Kohden Kogyo Co., Ltd. type MP-4T).
Each rat was injected with 300 ng/kg of angiotensin I and 100 ng/kg of angiotensin II through the vein at the groin and the blood pressure recorded periodically and the maximum value of the rise in the blood pressure resulting from the injection of angiotensin was determined for use as a control.
Then, the percentage of inhibitory effect was determined by orally administering 13.8 μM/kg of a compound of the invention to each rat, and injecting 300 ng/kg of angiotensin I and 100 ng/kg of angiotensin II into the vein at the groin at periods of 20, 60 or 120 minutes after the administration of the compound, with maximum blood pressures being determined by periodically measuring the blood pressure and comparing each maximum value obtained with that of the controls.

Assay [2] concerns the target T1, angiotensin converting enzyme (ACE) (Oryctolagus cuniculus, UniProt P12822).
T1 construct: ACE extracted from rabbit lung and purified; from tissue; host or cells: rabbit lung
T1 sequence (P12822 34-1310): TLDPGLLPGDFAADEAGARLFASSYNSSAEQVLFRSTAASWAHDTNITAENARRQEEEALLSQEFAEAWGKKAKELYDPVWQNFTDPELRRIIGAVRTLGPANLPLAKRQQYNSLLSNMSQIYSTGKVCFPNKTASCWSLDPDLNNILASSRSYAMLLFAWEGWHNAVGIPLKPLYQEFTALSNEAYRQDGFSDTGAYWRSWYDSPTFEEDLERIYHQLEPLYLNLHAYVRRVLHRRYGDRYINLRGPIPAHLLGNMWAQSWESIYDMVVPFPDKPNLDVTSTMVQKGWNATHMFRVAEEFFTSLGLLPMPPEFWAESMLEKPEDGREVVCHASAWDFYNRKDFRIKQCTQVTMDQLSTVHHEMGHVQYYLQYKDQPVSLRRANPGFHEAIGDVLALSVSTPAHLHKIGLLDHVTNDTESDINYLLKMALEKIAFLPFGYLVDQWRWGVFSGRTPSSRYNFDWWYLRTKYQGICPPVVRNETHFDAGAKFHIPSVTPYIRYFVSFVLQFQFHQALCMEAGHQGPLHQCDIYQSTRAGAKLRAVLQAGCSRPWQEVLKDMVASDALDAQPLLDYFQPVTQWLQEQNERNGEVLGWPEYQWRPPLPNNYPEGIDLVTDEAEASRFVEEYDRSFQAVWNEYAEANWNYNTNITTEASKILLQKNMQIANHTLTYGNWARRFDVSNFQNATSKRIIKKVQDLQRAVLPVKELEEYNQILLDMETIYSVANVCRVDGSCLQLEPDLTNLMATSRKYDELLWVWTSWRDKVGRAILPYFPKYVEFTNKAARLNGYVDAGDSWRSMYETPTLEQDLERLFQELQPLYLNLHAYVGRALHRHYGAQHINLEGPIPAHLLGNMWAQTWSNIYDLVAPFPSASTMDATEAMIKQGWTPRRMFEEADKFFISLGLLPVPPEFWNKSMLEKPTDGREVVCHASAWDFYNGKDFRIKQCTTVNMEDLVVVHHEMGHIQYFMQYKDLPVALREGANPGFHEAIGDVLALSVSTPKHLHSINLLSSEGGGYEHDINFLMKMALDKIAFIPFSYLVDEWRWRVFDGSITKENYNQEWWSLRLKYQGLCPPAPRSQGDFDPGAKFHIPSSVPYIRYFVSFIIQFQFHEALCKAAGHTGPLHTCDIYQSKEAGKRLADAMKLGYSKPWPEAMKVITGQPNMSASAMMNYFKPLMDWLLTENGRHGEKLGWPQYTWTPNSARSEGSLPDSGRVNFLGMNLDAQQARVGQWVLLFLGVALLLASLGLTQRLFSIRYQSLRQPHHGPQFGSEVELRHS
Description: ACE inhibition in vitro with hippuryl-L-histidine-L-leucine as substrate (method of Biochemical Pharmacology, 20, 1637 (1971)). Further details: species or system rabbit (lung). The note with it: read-out: 50% inhibition concentration (ID50). The method, then: as §1
The compounds of the present invention act to inhibite angiotensin converting enzyme which converts angiotensin I, produced by the action of the enzyme renin from angiotensinogen, to angiotensin II which acts as a pressor agent. Therefore, these compounds may be expected to be effective in the treatment of hypertension.

On to `CC(CS)C(=O)N1C(=O)c2ccccc2CC1C(=O)O` (centres unmarked) [Example 2, 2-(3-mercapto-2-methylpropionyl)-1-oxo-1,2,3,4-tetrahydro-3-isoquinoline carboxylic acid], for which the “Inhibition (%)” value in assay [1] (20 min after oral 13.8 μM/kg) was 83%; in assay [1] (60 min after oral 13.8 μM/kg), 70%; in assay [1] (120 min after oral 13.8 μM/kg), 72%. Besides, the IC50 in assay [2] amounted to 73 nM.
Take `O=C(O)C1Cc2ccccc2C(=O)N1C(=O)CCS` (centres unmarked) [Example 1, 2-(3-mercaptopropionyl)-1-oxo-1,2,3,4-tetrahydro-3-isoquinoline carboxylic acid]: the “Inhibition (%)” value in assay [1] (20 min after oral 13.8 μM/kg) came to 81%; in assay [1] (60 min after oral 13.8 μM/kg), 78%; in assay [1] (120 min after oral 13.8 μM/kg) it was 59%. Further, in assay [2], the IC50 was found to be 51 nM.
